According to patent publication US7615651B2, “Diaryl, dipyridinyl and aryl-pyridinyl derivatives and uses thereof” (Pfizer Inc., priority 2006, dated 2009):
pKi: −log10 of the molar value. Where a name gives a salt, the structure may show the parent alone. Read-outs that look alike come from different tables or passages of the source.

Tests used:
[1] = target: T1, opioid receptor kappa (Homo sapiens, UniProt P41145); assay: GTPγ[35S] binding assay, antagonism of dynorphin-A; type: biochemical
T1 construct: expressed in transfected cells
How it was run: (§1)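 Membranes with […] GTPγ[35S] in Tris pH 7.4 buffer with MgCl2, NaCl, 30 μM GDP; antagonist (10^−10–10^−5 M) preincubated 10 min at 30 °C, then challenged with BW-373U86 1 nM (delta), dynorphin-A 10 nM (kappa) or endorphin 1 μM (mu) for 1 h at 30 °C. Scintillation read-out; Ki derived.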

[2] = target: T2, opioid receptor delta (Homo sapiens, UniProt P41143); assay: GTPγ[35S] binding assay, antagonism of BW-373U86; type: biochemical
T2 construct: expressed in transfected cells
How it was run: as §1

[3] = Spontaneous food intake model; type: in vivo, Sprague-Dawley rats; settings: rats dosed before onset of dark cycle, compared with vehicle
Experimental: Male Sprague-Dawley rats may be obtained from Charles River Laboratories, Inc. (Wilmington, Mass.). The rats were individually housed and fed powdered chow. They were maintained on a 12 hour light/dark cycle and received food and water ad libitum. The animals were acclimated to the vivarium for a period of one week before testing is conducted. Rats were transferred to individual test cages 30 hours before the study. The rats were administered test compound or vehicle alone (no compound) 15-30 minutes prior to the onset of the dark cycle. The test compounds were dosed at ranges between 0.1 and 100 mg/kg depending upon the compound. The standard vehicle was 0.5% (w/v) methylcellulose or 30% β-cyclodextrin in water and the standard route of administration was oral. However, different vehicles and routes of administration are used to accommodate various compounds when required. Food intake was monitored using an automated Columbus Instruments system (Columbus, Ohio). Individual rat food intake was recorded continuously at 10-minute intervals, starting at the time of dosing, for a period of at least 12 hours. Compound efficacy was determined by comparing the food intake pattern of compound-treated rats to vehicle.

[4] = target: T3, opioid receptor mu (Homo sapiens, UniProt P35372); assay: GTPγ[35S] binding assay, antagonism of endorphin; type: biochemical
T3 construct: expressed in transfected cells
How it was run: as §1

[5] = Fasted induced refeeding model; type: in vivo, Sprague-Dawley rats; settings: rats after overnight fast, compared with vehicle
Experimental: The following screen is used to evaluate the efficacy of test compounds for inhibiting food intake in Sprague-Dawley rats after an overnight fast.
Male Sprague-Dawley rats were obtained from Charles River Laboratories, Inc. (Wilmington, Mass.). The rats are individually housed and fed powdered chow. They are maintained on a 12 hour light/dark cycle and received food and water ad libitum. The animals are acclimated to the vivarium for a period of one week before testing is conducted. Testing is completed during the light portion of the cycle.
To conduct the food intake efficacy screen, rats are transferred to individual test cages without food the afternoon prior to testing, and the rats are fasted overnight. After the overnight fast, rats are dosed the following morning with vehicle or test compounds. A known antagonist is dosed (3 mg/kg) as a positive control, and a control group receives vehicle alone (no compound). […] Individual rat food intake is recorded continuously at 10-minute intervals for a period of two hours. When required, food intake is recorded manually using an electronic scale; food is weighed every 30 minutes after food is provided up to four hours after food is provided. Compound efficacy is determined by comparing the food intake pattern of compound-treated rats to vehicle and the standard positive control.

[6] = rat, in vivo; cited from earlier work
[7] = target: mu opioid receptor (Homo sapiens, UniProt P35372); settings: mu opioid receptor subtype; cited from earlier work
[8] = target: kappa opioid receptor (Homo sapiens, UniProt P41145); settings: kappa opioid receptor subtype; cited from earlier work
[9] = target: delta opioid receptor (Homo sapiens, UniProt P41143); settings: cited from earlier work
[10] = humans; cited from earlier work
[11] = rodents; cited from earlier work
[12] = cited from earlier work
[13] = bile duct ligated rats; cited from earlier work
[14] = tested on: TNF-α production; settings: rats; cited from earlier work
[15] = average Ki, antagonism of dynorphin-A (10 nM) stimulated GTPγ[35S] binding, kappa opioid receptor membranes, read-out: Kappa functional (GTPγ[35S] binding Ki)
[16] = average Ki, antagonism of BW-373U86 (1 nM) stimulated GTPγ[35S] binding, delta opioid receptor membranes, read-out: Delta functional (GTPγ[35S] binding Ki)
[17] = average Ki, antagonism of endorphin (1 μM) stimulated GTPγ[35S] binding, mu opioid receptor membranes, read-out: Mu functional (GTPγ[35S] binding Ki)
[18] = read-out: Kappa functional (GTPγ[35S] binding Ki)
[19] = read-out: Delta functional (GTPγ[35S] binding Ki)
[20] = read-out: Mu functional (GTPγ[35S] binding Ki)

T2 sequence (P41143 whole entry): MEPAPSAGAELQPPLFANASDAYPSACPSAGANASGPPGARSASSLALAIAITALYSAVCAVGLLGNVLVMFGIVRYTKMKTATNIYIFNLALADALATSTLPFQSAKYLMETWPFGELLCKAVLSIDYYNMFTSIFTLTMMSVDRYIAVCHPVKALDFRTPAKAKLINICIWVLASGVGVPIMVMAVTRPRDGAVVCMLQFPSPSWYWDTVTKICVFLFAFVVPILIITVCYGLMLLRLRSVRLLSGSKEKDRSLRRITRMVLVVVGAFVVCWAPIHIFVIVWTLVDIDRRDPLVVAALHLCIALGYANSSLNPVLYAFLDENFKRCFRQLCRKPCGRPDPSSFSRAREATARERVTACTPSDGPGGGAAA
T1 sequence (P41145 whole entry): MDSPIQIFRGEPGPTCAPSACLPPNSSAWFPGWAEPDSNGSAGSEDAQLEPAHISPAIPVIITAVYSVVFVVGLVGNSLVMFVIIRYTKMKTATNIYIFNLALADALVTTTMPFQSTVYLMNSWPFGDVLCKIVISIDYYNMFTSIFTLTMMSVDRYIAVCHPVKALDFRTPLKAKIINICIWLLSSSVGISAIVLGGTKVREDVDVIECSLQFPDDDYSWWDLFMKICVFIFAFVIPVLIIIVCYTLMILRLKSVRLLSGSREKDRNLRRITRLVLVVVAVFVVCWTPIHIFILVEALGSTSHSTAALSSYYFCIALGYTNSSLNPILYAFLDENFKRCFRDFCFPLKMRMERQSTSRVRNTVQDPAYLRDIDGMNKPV
T3 sequence (P35372 whole entry): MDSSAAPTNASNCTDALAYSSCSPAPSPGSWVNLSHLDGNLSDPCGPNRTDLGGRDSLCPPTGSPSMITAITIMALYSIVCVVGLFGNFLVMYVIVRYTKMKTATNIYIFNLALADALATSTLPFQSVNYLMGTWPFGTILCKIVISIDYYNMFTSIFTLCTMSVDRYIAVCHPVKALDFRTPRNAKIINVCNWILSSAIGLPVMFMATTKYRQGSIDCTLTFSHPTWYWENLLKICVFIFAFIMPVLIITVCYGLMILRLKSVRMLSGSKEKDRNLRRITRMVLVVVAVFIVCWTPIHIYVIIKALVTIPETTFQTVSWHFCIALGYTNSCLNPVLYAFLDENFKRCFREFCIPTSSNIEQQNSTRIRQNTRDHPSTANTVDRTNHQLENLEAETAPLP
Sequence of delta opioid receptor (P41143 whole entry): as the sequence (P41143 whole entry) above
Sequence of kappa opioid receptor (P41145 whole entry): as the sequence (P41145 whole entry) above
Sequence of mu opioid receptor (P35372 whole entry): as the sequence (P35372 whole entry) above

| pKi [1, 15] | pKi [2, 16] | pKi [4, 17] | Compound | food intake [3] | other results |
| --- | --- | --- | --- | --- | --- |
|  |  |  | Cc1cc(C(N)=O)c(F)cc1-c1ccc(CNCCC(C)C)c(F)c1.Cl.O (hydrate or solvate) |  | melting point: 229 °C |
| 7.84 | 8.02 | 7.84 | CC(C)CCNCc1ccc(-c2cc(C(N)=O)ccc2F)c(F)c1.Cl [1A-07] | significant reduction in food intake |  |
| 8.48 | 8.29 | 8.05 | Cc1cc(C(N)=O)ccc1-c1ccc(CNCCC(C)C)cc1F.Cl [1B-03] | significant reduction in food intake |  |
| 9.39 | 9.73 | 10.03 | Cc1cc(C(N)=O)ccc1-c1ccc(CNC2Cc3ccccc3C2)cc1.Cl [4B-04] | significant reduction in food intake |  |
| 8.66 | 9.08 | 8.55 | Cc1cc(C(N)=O)ccc1-c1ccc(CNCCCc2ccccc2)cc1.Cl [4B-08] | significant reduction in food intake |  |
|  |  |  | Cc1cc(C(N)=O)ccc1-c1cc(F)c(CNCCC(C)C)c(F)c1.Cl [E1-01, 3′,5′Difluoro-2-methyl-4′-[(3-methyl-butylamino)-methyl]-biphenyl-4-carboxylic acid amide hydrochloride salt] | significant reduction in food intake | pKi [1, 18]: 8.58; pKi [2, 19]: 8.77; pKi [4, 20]: 8.68 |
|  |  |  | Cc1cc(CNCCC(C)C)ccc1-c1ccc(C(N)=O)cc1C.Cl [E2-01, 2,2′-Dimethyl-4′-[(3-methyl-butylamino)-methyl]-biphenyl-4-carboxylic acid amide hydrochloride salt] | significant reduction in food intake | pKi [1, 18]: 8.69; pKi [2, 19]: 8.86; pKi [4, 20]: 9.05 |
|  |  |  | Cc1cc(C(N)=O)ccc1-c1ccc(CNCCC(C)C)c(Cl)c1 [E3-01, hydrochloride salt] | significant reduction in food intake | pKi [1, 18]: 8.76; pKi [2, 19]: 8.82; pKi [4, 20]: 8.55 |
|  |  |  | CC(C)CCNCc1ccc(-c2cccc(-c3nnc[nH]3)c2)c(F)c1.Cl [E7-02, [2-Fluoro-3′-(4H-[1,2,4]-triazol-3-yl)-biphenyl-4-ylmethyl]-(3-methyl-butyl)-amine hydrochloride salt] | significant reduction in food intake | pKi ([1]; read-out: Kappa functional Ki (GTPγ[35S] binding)): 8.23; food intake [5]: significant reduction in food intake; pKi ([2]; read-out: Delta functional Ki (GTPγ[35S] binding)): 5.85; pKi ([4]; read-out: Mu functional Ki (GTPγ[35S] binding)): 8.48 |
|  |  |  | C[C@H]1CN(CC[C@H](O)C2CCCCC2)CC[C@@]1(C)c1cccc(O)c1 [LY255582] |  | anorectic effects [6]: robust anorectic effects |
|  |  |  | C[C@H]1CN(CCC(O)C2CCCCC2)CC[C@@]1(C)c1cccc(O)c1 (stereo partly drawn) [LY515300, 1-(3-cyclohexyl-3-hydroxypropyl)-3(R),4(R)-dimethyl-4-(3-hydroxyphenyl)piperidine] |  | binding affinity [7]: subnanomolar; binding affinity [8]: subnanomolar; binding affinity [9]: lower affinity |
|  |  |  | O=C1CC[C@@]2(O)[C@H]3Cc4ccc(O)c5c4[C@@]2(CCN3CC2CC2)[C@H]1O5 [Naltrexone] |  | weight loss efficacy [10]: poor weight loss efficacy; weight loss efficacy [11]: poor weight loss efficacy; insulin sensitivity ([12]; Polycystic Ovarian Syndrome (PCOS) women with hyperinsulinemia): improve insulin sensitivity; insulin sensitivity ([12]; post-menopausal women with hyperinsulinemia): improve insulin sensitivity; liver fibrosis [13]: attenuate liver fibrosis; LPS-stimulated TNF-α production [14]: inhibit LPS-stimulated TNF-α production |

| Compound | pKi [1, 15] | pKi [2, 16] | pKi [4, 17] | food intake [3] | other results |
| --- | --- | --- | --- | --- | --- |
| Cc1cc(C(N)=O)ccc1-c1ccc(CNCCC(C)C)cc1 [E4-01, 2-Methyl-4′-[(3-methyl-butylamino)-methyl]-biphenyl-4-carboxylic acid amide] | 8.62 | 7.70 | 8.19 | significant reduction in food intake |  |
